Test results from article PMC2820511 (Journal of medicinal chemistry, 2010).

What was measured:
MtMetAP1c = MtMetAP1c (Mycobacterium tuberculosis, UniProt P9WK19); experiment: Inhibition of purified MtMetAP1c apoenzyme activated by divalent metals; type: biochemical; details: apoenzyme activated by Co(II), Ni(II), Mn(II) or Fe(II)
[1] = system: MtMetAP1c-complemented E. coli cells; experiment: Inhibition of MtMetAP1c-complemented E. coli cell growth; details: highest concentration (1 mM) tested

Chain of MtMetAP1c (P9WK19 whole entry, looked up): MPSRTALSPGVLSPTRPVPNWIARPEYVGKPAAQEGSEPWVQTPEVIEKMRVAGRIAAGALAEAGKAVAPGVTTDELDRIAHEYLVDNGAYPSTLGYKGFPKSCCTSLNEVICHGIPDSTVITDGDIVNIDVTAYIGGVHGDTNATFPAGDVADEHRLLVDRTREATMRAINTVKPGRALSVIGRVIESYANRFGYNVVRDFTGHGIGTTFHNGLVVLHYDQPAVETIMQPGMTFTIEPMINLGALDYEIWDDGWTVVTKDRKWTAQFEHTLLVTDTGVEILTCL

| Compound | metalloform selectivity of inhibition of purified MtMetAP1c (MtMetAP1c) | growth inhibition at the highest concentration tested [1] |
| --- | --- | --- |
| Cc1nc(-c2ccc(O)c(O)c2)cs1 [compound 1] | selective for the Fe(II) form | – |
| Cc1ccsc1-c1ccc(O)c(O)c1 [compound 2] | selective for the Fe(II) form | – |
| O=C(O)c1ccc(-c2cc(Cl)ccc2Cl)o1 [compound 3] | selective for the Mn(II) form | no inhibition |
| Nc1nnc(SCc2ccc(F)cc2)[nH]1 [compound 5] | – | no inhibition |
| Cc1ccc(CSc2nnc(N)[nH]2)cc1 [compound 6] | – | no inhibition |
